Test results reported in PubChem BioAssay (NCI).
Values joined by “and” are separate entries in the source; they are usually repeats but may differ in a detail not shown here. Equal values may be shown once.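 A five-concentration, 48-hour dose response in 96-well plates underlies each endpoint, interpolated linearly between surrounding concentrations. At the GI50, growth is halved. TGI denotes the concentration required for complete inhibition of growth.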

What was measured:
Assay in all cases: inhibition of tumour cell growth, NCI panel, 48 h
A549 NSCLC = test system: A549 NSCLC
ACHN renal = test system: ACHN renal
HCT-15 colon = test system: HCT-15 colon
HT29 colon = test system: HT29 colon
MCF7 breast = test system: MCF7 breast
NCI-H226 lung = test system: NCI-H226 lung
OVCAR-8 ovarian = test system: OVCAR-8 ovarian
PC-3 prostate = test system: PC-3 prostate
SK-MEL-28 melanoma = test system: SK-MEL-28 melanoma
SW-620 colon = test system: SW-620 colon
TK-10 renal = test system: TK-10 renal

`CC1=Nc2ccccc2OC(C)=C1N=Nc1ccc2nc(C)[nH]c2c1` gave a TGI (A549 NSCLC) greater than 100 µM, a TGI (ACHN renal) greater than 100 µM and a TGI (HCT-15 colon) greater than 100 µM. It also gave a TGI (HT29 colon) greater than 100 µM, a TGI (MCF7 breast) greater than 100 µM and a TGI (NCI-H226 lung) greater than 100 µM. For the same compound, the TGI (OVCAR-8 ovarian) was greater than 100 µM, the TGI (PC-3 prostate) was greater than 100 µM and the TGI (SK-MEL-28 melanoma) was greater than 100 µM. The TGI (SW-620 colon) was greater than 100 µM and the TGI (TK-10 renal) was greater than 100 µM.
`[N-]=[N+]=NC(c1ccccc1)(c1ccccc1)c1ccccc1` showed a TGI (A549 NSCLC) of 34.3 µM, a TGI (ACHN renal) of 29.1 µM and a TGI (HCT-15 colon) of 40.5 µM. The TGI (HT29 colon) was 32.6 µM, the TGI (MCF7 breast) was 35.7 µM and the TGI (NCI-H226 lung) was 33.2 µM. It also gave a TGI (OVCAR-8 ovarian) of 35.1 µM, a TGI (PC-3 prostate) of 29.4 µM and a TGI (SK-MEL-28 melanoma) of 37.8 µM. It also gave a TGI (SW-620 colon) of 40.5 µM and a TGI (TK-10 renal) of 32.4 µM.
Compound `COc1cccc(Nc2nc(-c3cccs3)nc3cc(OC)c(OC)cc23)c1` has a TGI (A549 NSCLC) greater than 100 µM, a TGI (ACHN renal) of 50.3 µM and a TGI (HCT-15 colon) of 49.3 µM. It also gave a TGI (HT29 colon) of 48.8 µM, a TGI (MCF7 breast) of 49.2 µM and a TGI (NCI-H226 lung) greater than 100 µM. It also gave a TGI (OVCAR-8 ovarian) of 78.5 µM, a TGI (PC-3 prostate) of 92.7 µM and a TGI (SK-MEL-28 melanoma) greater than 100 µM. For the same compound, the TGI (SW-620 colon) was 52.4 µM and the TGI (TK-10 renal) was greater than 100 µM.
In the case of `Cc1ccc(-c2cc(-c3ccco3)c(C#N)c(=S)n2C2OC(CO)C(O)C(O)C2O)cc1` (stereo not given), the GI50 (A549 NSCLC) is reported as 21.5 µM and 50.7 µM, the TGI (A549 NSCLC) is reported as 65.8 µM and > 100 µM and the GI50 (ACHN renal) is reported as 25.6 µM and 53.4 µM. For the same compound, the TGI (ACHN renal) was greater than 100 µM, the TGI (HCT-15 colon) was greater than 100 µM and the TGI (HT29 colon) was greater than 100 µM. The TGI (MCF7 breast) was greater than 100 µM, the GI50 (NCI-H226 lung) was 13.4 µM and 32.4 µM and the TGI (NCI-H226 lung) was 53.9 µM and > 100 µM. For the same compound, the GI50 (OVCAR-8 ovarian) was 4.73 µM and 30.8 µM, the TGI (OVCAR-8 ovarian) was 22.6 µM and > 100 µM and the GI50 (PC-3 prostate) was 17.4 µM and > 100 µM. The TGI (PC-3 prostate) was greater than 100 µM, the TGI (SK-MEL-28 melanoma) was greater than 100 µM and the TGI (SW-620 colon) was greater than 100 µM. The TGI (TK-10 renal) was greater than 100 µM.
`C=C1CCN2CC[C@@H](OC(=O)/C(C)=C\C)[C@@H]12` was tested, and the TGI (A549 NSCLC) was greater than 100 µM, the TGI (ACHN renal) was greater than 100 µM and the TGI (HCT-15 colon) was greater than 100 µM. It also gave a TGI (HT29 colon) greater than 100 µM, a TGI (MCF7 breast) greater than 100 µM and a TGI (NCI-H226 lung) greater than 100 µM. The TGI (OVCAR-8 ovarian) was greater than 100 µM, the TGI (PC-3 prostate) was greater than 100 µM and the TGI (SK-MEL-28 melanoma) was greater than 100 µM. For the same compound, the TGI (SW-620 colon) was greater than 100 µM and the TGI (TK-10 renal) was greater than 100 µM.
`CC(C)=CCC[C@@H](C)c1c(O)c(O)c(C)c2nccnc12` was tested, and the TGI (A549 NSCLC) was greater than 100 µM, the TGI (ACHN renal) was 45.2 µM and the TGI (HCT-15 colon) was greater than 100 µM. For the same compound, the TGI (HT29 colon) was greater than 65.6 µM, the TGI (MCF7 breast) was greater than 100 µM and the TGI (NCI-H226 lung) was 37.1 µM. It also gave a TGI (OVCAR-8 ovarian) greater than 48.6 µM, a TGI (PC-3 prostate) greater than 100 µM and a TGI (SK-MEL-28 melanoma) greater than 100 µM. The TGI (SW-620 colon) was greater than 100 µM and the TGI (TK-10 renal) was greater than 100 µM.
For `Nc1nccc(-c2c[nH]c3cc(Br)ccc23)n1`, the TGI (A549 NSCLC) was 35.5 µM, the TGI (ACHN renal) was 66 µM and the TGI (HCT-15 colon) was greater than 100 µM. The TGI (HT29 colon) was 44.7 µM, the TGI (MCF7 breast) was greater than 100 µM and the TGI (NCI-H226 lung) was greater than 100 µM. It also gave a TGI (OVCAR-8 ovarian) greater than 100 µM, a TGI (PC-3 prostate) greater than 100 µM and a TGI (SK-MEL-28 melanoma) of 86.8 µM. The TGI (SW-620 colon) was greater than 100 µM and the TGI (TK-10 renal) was 59 µM.
`CCCCCC1=CC(=O)C1(Cl)Cl` showed a TGI (A549 NSCLC) of 71.5 µM, a TGI (ACHN renal) of 23.4 µM and a TGI (HCT-15 colon) of 32.4 µM. For the same compound, the TGI (HT29 colon) was 36.7 µM, the TGI (MCF7 breast) was 31.6 µM and the TGI (NCI-H226 lung) was 41.5 µM. It also gave a TGI (OVCAR-8 ovarian) of 34 µM, a TGI (PC-3 prostate) of 42.1 µM and a TGI (SK-MEL-28 melanoma) of 36.8 µM. The TGI (SW-620 colon) was 40.5 µM and the TGI (TK-10 renal) was 20.8 µM.
Compound `O=c1[nH]c(=S)[nH]c2c1C(c1ccc([N+](=O)[O-])cc1)c1c([nH]c(=S)[nH]c1=O)O2` has a TGI (A549 NSCLC) greater than 100 µM, a TGI (ACHN renal) greater than 100 µM and a TGI (HCT-15 colon) greater than 100 µM. For the same compound, the TGI (HT29 colon) was greater than 100 µM, the TGI (MCF7 breast) was greater than 100 µM and the TGI (NCI-H226 lung) was greater than 100 µM. For the same compound, the TGI (OVCAR-8 ovarian) was greater than 100 µM, the TGI (PC-3 prostate) was greater than 100 µM and the TGI (SK-MEL-28 melanoma) was greater than 100 µM. For the same compound, the TGI (SW-620 colon) was greater than 100 µM and the TGI (TK-10 renal) was greater than 100 µM.
For `CC1(C)O[C@H]2OC(CO[Si](C)(C)C(C)(C)C)C(N=[N+]=[N-])[C@H]2O1` (stereo not given in full), the TGI (A549 NSCLC) was 35.8 µM, the TGI (ACHN renal) was 38.6 µM and the TGI (HCT-15 colon) was 38.3 µM. It also gave a TGI (HT29 colon) of 25.5 µM, a TGI (MCF7 breast) of 36.8 µM and a TGI (NCI-H226 lung) of 38.7 µM. The TGI (OVCAR-8 ovarian) was 38.1 µM, the TGI (PC-3 prostate) was 37 µM and the TGI (SK-MEL-28 melanoma) was 60.9 µM. For the same compound, the TGI (SW-620 colon) was 52.4 µM and the TGI (TK-10 renal) was 36.7 µM.
